Laboratory results from patent US11026922B2, “Compositions comprising melatonin and flavonoids for use in the treatment of tumours resistant to chemotherapy” (priority 2014, dated 2021).

Columns and labels:
[1] = system: chemoresistant MDA-MB-231 human tumour cells (breast adenocarcinoma); experiment: Viability of MDA-MB-231 cells, xCELLigence assay (Table 5); assay type: cell-based; conditions: conclusion from Tables 5 and 6 (MDA-MB-231 and MCF-7)
[2] = system: MDA-MB-231 (breast adenocarcinoma); experiment: Cell viability of chemoresistant MDA-MB-231 cells (Tables 1, 2, 4); assay type: cell-based, human; conditions: alone or in association with cyclophosphamide
Source text: The activity of the association of at least one flavonoid, preferably selected from the group comprising or, alternatively, consisting of oxerutin, diosmin, hesperidin and rutin in association with melatonin and with synthetic chemotherapeutic agents (cyclophosphamide/methotrexate) and/or arctigenin, arctiin, berberine, berbamine, sanguinarine and chelerythrine (indicated with the term “Extracts” in the Tables) was studied in resistant cell lines of adenocarcinomas and carcinomas in comparison with chemosensitive tumour cell lines and line cells.

| SMILES | effect on the anti-tumour activity of flavonoids [1] | synergistic effects in association with cyclophosphamide [2] |
| --- | --- | --- |
| COc1ccc2[nH]cc(CCNC(C)=O)c2c1 [Melatonin, melatonin] | enhances the anti-tumour activity of flavonoids |  |
| O=c1c(O)c(-c2ccc(O)c(O)c2)oc2cc(O)cc(O)c12 [Quercetin, quercetin] |  | absence of synergistic effects |
